Assay [1] deals with T1, angiotensin II (AII) receptors, guinea pig adrenal gland membrane (Cavia porcellus, UniProt Q9WV26).
T1 construct: from tissue; host or cells: guinea pig adrenal gland, cell surface membrane fraction
T1 sequence (Q9WV26 1-359): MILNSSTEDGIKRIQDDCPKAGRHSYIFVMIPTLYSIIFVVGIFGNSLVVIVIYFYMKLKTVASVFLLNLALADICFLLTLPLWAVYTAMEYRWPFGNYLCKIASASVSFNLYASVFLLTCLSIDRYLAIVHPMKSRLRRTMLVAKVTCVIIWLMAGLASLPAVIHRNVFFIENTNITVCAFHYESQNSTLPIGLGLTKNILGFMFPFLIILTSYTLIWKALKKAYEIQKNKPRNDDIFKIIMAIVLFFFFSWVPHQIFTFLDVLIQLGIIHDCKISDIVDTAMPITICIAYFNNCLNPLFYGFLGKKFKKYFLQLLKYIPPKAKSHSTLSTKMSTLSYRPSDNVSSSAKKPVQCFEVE
The experiment in a line: Test A: displacement of radiolabelled AII binding to guinea pig adrenal cell surface membranes. Conditions: in vitro, read-out: IC50 (concentration for 50% displacement of radiolabelled AII binding). The procedure: (§1) The antagonism of one or more of the physiological actions of AII and, in particular, the antagonism of the interaction of AII with the receptors which mediate its effects on a target tissue, may be assessed using one or more of the following, routine laboratory procedures.
Test A: This in vitro procedure involves the incubation of the test compound initially at a concentration of 100 micromolar (or less) in a buffered mixture containing fixed concentrations of radiolabelled AII and a cell surface membrane fraction prepared from a suitable angiotensin target tissue. In this test, the source of cell surface membranes is the guinea pig adrenal gland which is well known to response to AII. Interaction of the radiolabelled AII with its receptors (assessed as radiolabel bound to the particulate membrane fraction following removal of unbound radiolabel by a rapid filtration procedure such as is standard in such studies) is antagonized by compounds which also bind to the membrane receptor sites and the degree of antagonism (observed in the test as displacement of membrane-bound radioactivity) is determined readily by comparing the receptor-bound radioactivity in the presence of the test compound at the specified test concentration with a control value determined in the absence of the test compound. […]

The subject of assay [2] is pressor responses induced by AII. Description: Test C: antagonism of AII-induced pressor responses in terminally-anaesthetised or conscious rats. It counts as in vivo. To be noted: iv, rat, i.v. administration, AII-induced pressor response.
Excerpt: as §1
Test C: This in vivo test involves using terminally-anaesthetised or conscious rats in which an arterial catheter has been implanted under anaesthesia for the measurement of changes in blood pressure. The AII antagonistic effects of the test compound following oral or parenteral administration, are assessed against pressor responses induced by AII. To ensure that the effect is specific the effect of the test compound on vasopressin-induced pressor responses may also be determined in the same preparation.

Counter-ions that a name gives are not always drawn.

As usually defined, the ED50 is the dose that gives a 50% effect, or the effect in half of the subjects. A higher ED50 goes with a need for a large dose. Turning to `CCNC(=O)OCCOc1ccc2nc(CC)cc(OCc3ccc(-c4ccccc4-c4nn[nH]n4)cc3)c2n1` [Example 2, 2-ethyl-6-(2-ethylaminocarbonyloxy)ethoxy)-4-[(2'-(1H-tetrazol-5-yl)biphenyl-4-yl)methoxy]-1,5-naphthyridine hydrochloride], the IC50 in assay [1] came to 18 nM. Further, in assay [2], the ED50 came out at 0.08 mg/kg.
